Consider twelve molecules from patent US10213415B2, “Compounds as opioid receptor modulators” (JANSSEN PHARMACEUTICA NV, priority 2004, dated 2019).

The target of one experiment is T1, delta opioid receptor (Rattus norvegicus, UniProt P33533).
T1 construct: from tissue; host or cells: forebrain of male Wistar rats
Nature of the experiment: Rat Brain Delta Opioid Receptor Binding Assay ([3H]DPDPE). Particulars: rat forebrain membranes, margin of error 10-20%, read-out: r Ki δ. On the procedure: (§1) Male, Wistar rats (150-250 g, VAF, Charles River, Kingston, N.Y.) are killed by cervical dislocation, and their brains removed and placed immediately in ice cold Tris HCl buffer (50 mM, pH 7.4). The forebrains are separated from the remainder of the brain by a coronal transection, beginning dorsally at the colliculi and passing ventrally through the midbrain-pontine junction. After dissection, the forebrains are homogenized in Tris buffer in a Teflon® glass homogenizer. The homogenate is diluted to a concentration of 1 g of forebrain tissue per 80 mL Tris and centrifuged at 39,000×g for 10 min. The pellet is resuspended in the same volume of Tris buffer containing 5 mM MgCl2 with several brief pulses from a Polytron homogenizer. This particulate preparation is used for the delta opioid binding assays. Following incubation with the delta selective peptide ligand ˜4 nM [^3H]DPDPE at 25° C. for 2.5 h in a 96-well plate with total volume of 1 mL, the plate contents are filtered through Wallac filtermat B sheets on a Tomtec 96-well harvester. The filters are rinsed three times with 2 mL of 10 mM HEPES (pH 7.4), and dried in a microwave oven 2 min twice. To each sample area 2×50 μL of Betaplate Scint scintillation fluid (LKB) is added and analyzed on a LKB (Wallac) 1205 BetaPlate liquid scintillation counter.
The data are used to calculate either the % inhibition compared to control binding (when only a single concentration of test compound is evaluated) or a Ki value (when a range of concentrations is tested). % inhibition is calculated as: [(total dpm−test compound dpm)/(total dpm−nonspecific dpm)]*100. Kd and Ki values were calculated using GraphPad PRISM data analysis program.

The target of a further experiment is T2, human mu opioid receptor (Homo sapiens, UniProt P35372).
T2 construct: purchased Perkin Elmer RBHOMM400UA; host or cells: Chinese Hamster Ovary cells (recombinant expression)
Nature of the experiment: Human Mu Opioid Receptor Binding Assay (CHO membranes, 3H-Damgo). Particulars: read-out: hKi μ. A digest of the protocol:
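Membranes from CHO cells expressing human mu opioid receptor, 300 μg/mL, in 50 mM Tris pH 7.5, 5 mM MgCl2. Incubated with compound and ³H-Damgo (3.6 nM before mixing) for 2 h at room temperature, filtered, counted by scintillation. Nonspecific binding with 1 μM unlabelled Damgo.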

The target of experiment [1] is T3, mu opioid receptor (CHO-hMOR cell membranes) (Homo sapiens, UniProt P35372).
T3 construct: purchased Receptor Biology, Inc. (Baltimore, Md.); host or cells: CHO cells (recombinant expression)
Nature of the experiment: Mu Opioid Receptor Functional Assay: [35S]GTPγS Binding in CHO-hMOR Cell Membranes, Versions 1 and 2. It counts as biochemical. Particulars: for MOR GTP binding assay_v1 (% I): version 1, % inhibition of agonist-stimulated GTPγS binding; for MOR GTP assay_v1 % of Basal: version 1, basal binding = 100%. A digest of the protocol:
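CHO-hMOR membranes (10 μg/ml) on WGA SPA beads, preincubated 45 min at 25 °C, then incubated with 0.5 nM [35S]GTPγS in HEPES pH 7.6, 5 mM MgCl2, 100 mM NaCl, 1 mM DTT, 1 mM EDTA. Non-specific binding with 10 μM unlabeled GTPγS; agonist EC50 from concentration-response, antagonism as inhibition of 1 μM SNC80-stimulated binding.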

For the next experiment, the target named is T4, mu opioid receptor (Rattus norvegicus, UniProt P33535).
T4 construct: from tissue; host or cells: forebrain of male Wistar rats
The experiment is described as follows: Rat Brain Mu Opioid Receptor Binding Assay (and Version 2a, [3H]DAMGO). Particulars: rat forebrain membranes, margin of error 10-20%, read-out: r Ki μ. As for the experimental part:
as §1, with “mu-opioid” for “delta opioid”, “Following incubation with the delta selective peptide ligand ˜4 nM [^3H]DPDPE at 25° C. for 2.5 h in a 96-well plate with total volume of 1 mL, the plate contents are filtered through Wallac filtermat B sheets on a Tomtec 96-well harvester.” left out, “(pH7.4),” for “(pH 7.4),”
The data are used to calculate either the % inhibition compared to control binding (when only a single concentration of test compound is evaluated) or a Ki value (when a range of concentrations is tested). % inhibition is calculated as: [(total dpm-test compound dpm)/(total dpm-nonspecific dpm)]*100. Kd and Ki values were calculated using GraphPad PRISM data analysis program.
Male, Wistar rats (150-250 g, VAF, Charles River, Kingston, N.Y.) were killed by cervical dislocation, and their brains removed and placed immediately in ice-cold Tris HCl buffer (50 mM, pH 7.4). The forebrains were separated from the remainder of the brain by a coronal transection, beginning dorsally at the colliculi and passing ventrally through the midbrain-pontine junction. After dissection, the forebrains were homogenized in Tris buffer in a Teflon®-glass homogenizer. The homogenate was diluted to a concentration of 1 g of forebrain tissue per 80 mL Tris and centrifuged at 39,000×g for 10 min. The pellet was resuspended in the same volume of Tris buffer containing 5 mM MgCl2 with several brief pulses from a Polytron homogenizer. This particulate preparation was used for the mu opioid binding assay. Following incubation with 0.8 nM of the mu selective ligand [^3H]DAMGO at 25° C. for 2.5 h in a 96-well plate with total 1 mL, the plate contents were filtered through Wallac filtermat B sheets on a Tomtec 96-well harvester. The filters were rinsed three times with 2 mL of 10 mM HEPES (pH 7.4), and dried in a microwave oven. To each sample area, Betaplate Scint scintillation fluid (LKB) was added and the resulting radioactivity quantified on a LKB (Wallac) 1205 BetaPlate liquid scintillation counter. Kd and Ki values were calculated using the GraphPad PRISM data analysis program.

Experiment [2] has as its target T5, human delta subtype 2 opioid receptor (Homo sapiens, UniProt P41143).
T5 construct: purchased Perkin Elmer RBHODM400UA; host or cells: Chinese Hamster Ovary cells (recombinant expression)
The experiment is described as follows: Human Delta Opioid Receptor Binding Assay (CHO membranes, 3H-Naltrindole). Particulars: read-out: hKi δ. Put shortly:
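Filtration binding on CHO-cell membranes expressing the human receptor, in 50 mM Tris pH 7.5 with 5 mM MgCl2, 30 min at room temperature; 3H-naltrindole diluted to 6 nM before mixing 1:1 with compound. Nonspecific binding defined with 1 μM unlabelled naltrindole; inhibition relative to no-inhibitor wells.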

The subject of experiment [3] is novel environment-stressed mice. Nature of the experiment: In Vivo Assay-Stress-Induced Fecal Output (Fecal Output for 1 hr). Particulars: 30 mg/kg oral, 1 hr; for response vs control in vivo at 30 mg/kg: Mus musculus, po, 1 h. Also noted: species or system mouse. The text has this:
This assay evaluates the fecal output in novel environment-stressed mice to that of acclimated controls.
Methods: Adult, male, Crl:CD-1(ICR) mice, weighing ˜30-35 g were used in these studies, with a minimum of 10 mice per dose group. One group of mice was assigned as acclimated, or “non-stressed” controls. These control mice were transported from colony housing, where they were housed 3/cage in polycarbonate cages with access to food and water ad lib. to the procedure room. The mice were removed from their home cages and individually housed in 20 cm wide×20 cm deep×15 cm tall cages, equipped with a wire mesh bottom where they remained for a 16-18 hr period of acclimation to their novel environment. Mice were allowed access to food and water ad lib. during acclimation. The other groups of mice were assigned as non-acclimated, or “stressed” treatment groups. Each mouse in each group was weighed and vehicle, or test compound, was intragastrically administered by oral intubation in 0.5% methylcellulose. Mice were allowed access to water only ad lib. during the test period. After compound administrations, acclimated (control) as well as non-acclimated (stressed) mice were individually housed in a 20 cm wide×20 cm deep×15 cm tall cage, with a wire mesh bottom. An absorbant cardboard is placed beneath the cages. The number of fecal pellets excreted by each mouse was determined at hourly intervals following placement of the mice in the individual cages. Raw Data=# of fecal pellets/mouse/hr. […]

Where two headings read alike, the source gives them in different places.

T2 sequence (P35372 whole entry): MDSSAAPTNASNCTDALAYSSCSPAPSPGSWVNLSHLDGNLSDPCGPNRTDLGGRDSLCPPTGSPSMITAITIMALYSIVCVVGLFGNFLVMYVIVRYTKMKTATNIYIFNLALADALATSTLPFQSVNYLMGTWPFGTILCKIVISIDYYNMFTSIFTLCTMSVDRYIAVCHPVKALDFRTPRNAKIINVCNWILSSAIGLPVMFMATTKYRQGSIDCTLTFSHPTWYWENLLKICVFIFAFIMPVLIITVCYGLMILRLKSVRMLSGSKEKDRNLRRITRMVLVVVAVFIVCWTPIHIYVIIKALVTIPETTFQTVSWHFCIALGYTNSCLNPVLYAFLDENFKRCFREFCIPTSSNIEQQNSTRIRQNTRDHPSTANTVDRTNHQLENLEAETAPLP
T3 sequence (P35372 whole entry): as above
T5 sequence (P41143 whole entry): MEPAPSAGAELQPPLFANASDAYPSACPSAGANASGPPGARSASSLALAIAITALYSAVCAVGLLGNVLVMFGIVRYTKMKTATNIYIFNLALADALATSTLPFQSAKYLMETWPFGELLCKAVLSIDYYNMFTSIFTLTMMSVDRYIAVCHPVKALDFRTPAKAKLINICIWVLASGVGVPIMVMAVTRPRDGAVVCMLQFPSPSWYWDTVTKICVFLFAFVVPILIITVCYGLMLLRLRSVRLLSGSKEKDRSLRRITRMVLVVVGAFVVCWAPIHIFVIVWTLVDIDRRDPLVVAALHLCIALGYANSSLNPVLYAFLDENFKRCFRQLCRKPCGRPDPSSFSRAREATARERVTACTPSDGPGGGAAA
T1 sequence (P33533 whole entry): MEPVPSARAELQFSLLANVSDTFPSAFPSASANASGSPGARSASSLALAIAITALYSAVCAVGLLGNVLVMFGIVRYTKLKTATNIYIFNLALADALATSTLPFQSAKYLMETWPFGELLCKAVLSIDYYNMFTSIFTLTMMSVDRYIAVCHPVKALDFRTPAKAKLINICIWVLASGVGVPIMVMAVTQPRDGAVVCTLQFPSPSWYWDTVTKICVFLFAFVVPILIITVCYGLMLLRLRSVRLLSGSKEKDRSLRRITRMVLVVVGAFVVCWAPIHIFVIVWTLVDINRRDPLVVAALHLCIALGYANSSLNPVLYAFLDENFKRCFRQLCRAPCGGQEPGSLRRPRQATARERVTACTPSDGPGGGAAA
T4 sequence (P33535 whole entry): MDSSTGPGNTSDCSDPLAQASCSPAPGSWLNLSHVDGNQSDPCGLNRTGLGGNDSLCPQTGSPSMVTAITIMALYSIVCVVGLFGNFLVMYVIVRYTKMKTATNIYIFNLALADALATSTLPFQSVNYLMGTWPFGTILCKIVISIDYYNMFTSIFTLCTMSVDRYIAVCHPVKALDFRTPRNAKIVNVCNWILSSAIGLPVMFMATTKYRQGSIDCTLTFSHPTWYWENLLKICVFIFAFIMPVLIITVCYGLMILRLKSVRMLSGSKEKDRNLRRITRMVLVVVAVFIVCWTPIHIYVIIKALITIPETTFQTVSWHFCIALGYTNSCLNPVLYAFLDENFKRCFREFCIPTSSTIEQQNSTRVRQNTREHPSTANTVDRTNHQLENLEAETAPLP

With `Cc1cc(O)cc(C)c1C[C@H](N)C(=O)N[C@H](C)c1nc(-c2ccccc2)c[nH]1` [Cpd 208], the Ki turned out to be 33 nM on delta opioid receptor, 1.2 nM at human mu opioid receptor and 1.3 nM on mu opioid receptor. The “MOR GTP binding assay_v1 (% I)” value in experiment [1] is on record as 1.00%. The “MOR GTP assay_v1 % of Basal” value in experiment [1] worked out at 475.00%.
Regarding `N[C@@H](Cc1ccc(O)cc1)C(=O)N(Cc1nc(-c2ccccc2)c[nH]1)CC1CC1` [Cpd 193], the Ki at delta opioid receptor was 182 nM; in experiment [2], more than 10000 nM; at mu opioid receptor it was 21.1 nM. The “MOR GTP binding assay_v1 (% I)” value in experiment [1] turned out to be 54.00%. Also, the “MOR GTP assay_v1 % of Basal” value in experiment [1] is 182.00%.
For `N[C@@H](Cc1ccc(O)cc1)C(=O)N(Cc1nc(-c2ccccc2)c[nH]1)C1CCCCC1` [Cpd 191], the Ki at delta opioid receptor was 727 nM; in experiment [2] it was more than 10000 nM; at mu opioid receptor, 189 nM.
As for `CCNC(=O)c1cc(C)c(C[C@H](N)C(=O)N(C)[C@@H](C)c2nc(-c3ccccc3)c[nH]2)c(C)c1` [Cpd 181], the Ki worked out at 341 nM at delta opioid receptor and 1.3 nM on mu opioid receptor. Besides, in experiment [1], the “MOR GTP binding assay_v1 (% I)” value worked out at 1.00%.
As for `Cc1cc(C(N)=O)cc(C)c1C[C@H](N)C(=O)N(Cc1nc(-c2ccccc2)c[nH]1)C(C)C` [Cpd 178], the results for the Ki at delta opioid receptor and at mu opioid receptor were 104 nM and 0.6 nM, respectively. Also, the “Fecal Output (# pellets) cpd” value in experiment [3] (novel environment-stressed mice) stood at 5.5 pellets. For the same molecule, the response vs control in vivo at 30 mg/kg in experiment [3] (relative to acclimated control, read-out: Fecal Output cpd % control) worked out at 172%; in experiment [3] (relative to novel environment stress (NES) vehicle group, read-out: Fecal Output cpd % NES), 62.5%. Further, in experiment [1], the “MOR GTP binding assay_v1 (% I)” value stood at 10.00%.
Turning to `Cc1cc(O)cc(C)c1C[C@H](N)C(=O)N[C@@H](Cc1cccc(C#N)c1)c1nc(-c2ccccc2)c[nH]1` [Cpd 173], at delta opioid receptor, the Ki amounted to 5070 nM. In addition, in experiment [1], the “MOR GTP binding assay_v1 (% I)” value turned out to be 85.00% and the “MOR GTP assay_v1 % of Basal” value was determined as 147.00%. The Ki at mu opioid receptor stood at 45.7 nM.
For the molecule `Cc1cc(O)cc(C)c1C[C@H](N)C(=O)N[C@@H](Cc1ccccc1)c1nc(-c2ccccc2)c[nH]1` [Cpd 177], on delta opioid receptor, the Ki was 255 nM. Also, in experiment [1], the “MOR GTP binding assay_v1 (% I)” value is listed as 23.00% and the “MOR GTP assay_v1 % of Basal” value is 625.00%. For the same molecule, the Ki at mu opioid receptor turned out to be 13.4 nM.
Turning to `CCNC(=O)c1cc(C)c(C[C@H](N)C(=O)N(C)[C@H](C)c2nc(-c3ccccc3)c[nH]2)c(C)c1` [Cpd 182], the values for the Ki on delta opioid receptor and on mu opioid receptor were 1860 nM and 7 nM, respectively. Moreover, the “MOR GTP binding assay_v1 (% I)” value in experiment [1] is 6.00%.
On to `CN(Cc1nc(-c2ccccc2)c[nH]1)C(=O)[C@@H](N)Cc1ccc(O)cc1` [Cpd 198], for which the Ki at delta opioid receptor was 5180 nM; on human mu opioid receptor, 140 nM; in experiment [2] it was more than 10000 nM; at mu opioid receptor, 152 nM.
Consider `C[C@H](c1nc(-c2ccccc2)c[nH]1)N(C)C(=O)[C@@H](N)Cc1ccc(O)cc1` [Cpd 210], for which the results for the Ki on delta opioid receptor, on human mu opioid receptor and at mu opioid receptor were 1860 nM, 0.29 nM and 420 nM, respectively. Besides, the “MOR GTP binding assay_v1 (% I)” value in experiment [1] is 10.00%. Also, the “MOR GTP assay_v1 % of Basal” value in experiment [1] is 414.00%.
Consider `Cc1cc(O)cc(C)c1C[C@H](N)C(=O)N[C@@H](C)c1nc(-c2ccccc2)c[nH]1` [Cpd 209], for which the figures for the Ki on delta opioid receptor, on human mu opioid receptor and on mu opioid receptor were 708 nM, 23 nM and 17 nM, respectively. The “MOR GTP binding assay_v1 (% I)” value in experiment [1] was found to be 10.00%. Also, the “MOR GTP assay_v1 % of Basal” value in experiment [1] is on record as 295.00%.
As to `C[C@@H](c1nc(-c2ccccc2)c[nH]1)N(C)C(=O)[C@@H](N)Cc1ccc(O)cc1` [Cpd 211], the Ki at delta opioid receptor worked out at 180 nM. Besides, in experiment [1], the “MOR GTP binding assay_v1 (% I)” value came out at 10.00% and the “MOR GTP assay_v1 % of Basal” value was 371.00%. Also, the Ki on mu opioid receptor amounted to 5.9 nM.
